Patent US10705094B2, “TNF receptor signaling modulator assay” (UCB Biopharma SRL, priority 2015, dated 2020)

Assays:
TNFα trimer = TNFα trimer (Homo sapiens, UniProt P01375); test: Mass spectrometric analysis of compound binding to and stabilisation of TNFα trimer
Description: Mass spectrometry was typically performed using a Waters LCT-premier Time-of-Flight mass spectrometer or a Waters SynaptG2 Q-TOF mass spectrometer. Samples were introduced using an Advion Triversa Nanomate nanoflow infusion device which replaces the conventional spectrometer source, sample injection was via an “A” series chip with […] nozzle size at a nominal flow rate of 100 nl/min. Further modifications to the Waters LCT-premier Time-of-Flight mass spectrometer include a customised source cooling device allowing precise control of the source temperature and a commercial pressure regulation device giving precise control over the vacuum conditions in the source region. Together these modifications help retain the TNFα trimer in a native, folded conformation and facilitate the detection of complexes formed with test compounds of weak affinities.
Ions were generated using standard positive ion electrospray conditions resulting in multiple charging of TNFα.
Mass spectrometry is very sensitive to the buffer salts present in the protein sample. Typical buffer salts such as potassium or sodium phosphates have a severely detrimental affect on ionisation. Accordingly protein samples were pre-treated to remove these salts using a Zeba desalt spin column, the protein being exchanged into a mass spectrometry compatible buffer system, typically 50 mM Ammonium Acetate at pH 6.8.
Typically the test compounds were presented as 10 mM DMSO stock solutions such that when they are incubated with TNFα in solution the final DMSO concentration is 5%. […] This is evidenced by the changes in the number of charges acquired by the protein under the various conditions described.
Test compounds were prepared as 10 mM solutions in dimethylsulphoxide (DMSO). Therefore, it was necessary to establish the effect of DMSO on the native TNFα trimer in the absence of a test compound. DMSO was added to an aqueous solution of TNFα trimer to give a final concentration of 5% v/v and the mass spectrum acquired.
The compound of formula (1) was added to a solution containing TNFα and 5% v/v DMSO and the mass spectrum acquired.
Further evidence for the stabilization of the trimeric form of TNFα by the test compounds was obtained from analyzing the samples under harsher ionization conditions that tend to favour breakdown of the native trimeric form into monomers.
Incubation of a library of test compounds, including the compound of formula (1) with TNFα was monitored by mass spectrometry under soft ionization conditions. […] This confirms that the test compounds, including the compound of formula (1), have a different mode of action to known compounds, which stabilize the dimeric form of TNFα.
A species of lower molecular weight (˜473 Da appears to bind at less than 5% occupancy). C87 has a molecular weight of 503 Da.

TNFα and TNF-R = TNFα and TNF-R (Homo sapiens, UniProt P01375); test: LC-MS analysis of size exclusion fractions of TNFα, TNF-R and compound; format: binding; settings: compound added before or after TNFα/TNF-R complex formation
Description: Fractions from size exclusion chromatographic separation of mixtures of TNFα, TNF-R and the compound of formula (1) were analysed by liquid chromatography-mass spectrometry (LC-MS). Two samples were prepared for size exclusion chromatography.

h-TNFα = h-TNFα (Homo sapiens, UniProt P01375); test: Monomer exchange in TNFα trimers by mass spectrometry, compound pre-incubated with human TNFα; format: binding; settings: 18 hours; for off-rate from h-TNFα: 1:1 complex with h-TNFα mixed with m-TNFα; for cross species monomer subunit exchange: compound preincubated with h-TNFα, then m-TNFα added
Description: Human and mouse homotrimers of TNFα (H3 and M3 respectively) were incubated together and aliquots of the solution monitored by mass spectrometry appearance of the cross species heterotrimers. The mass spectrometric analysis confirmed that monomer exchange between native TNFα trimers was able to occur in solution. The exchange rate was slow and was monitored over a course of 4 hours before full equilibration was achieved (data not shown). The mechanism is unknown, although is it unlikely to involve formation of the dimeric forms as none of these were observed. Monomer exchange is likely to be occurring between pure human and mouse trimers, the mixing of mouse and human trimers simply makes this exchange visible by mass spectrometry.
In a second series of experiments an excess of the compound of formula (1) was incubated with Human TNFα, the excess compound of formula (1) was then removed. Mass Spectral analysis confirmed that a 1:1 complex had been formed between the compound of formula (1) and h-TNFα. Mouse TNFα was now added to this sample which was then subjected to mass spectral analysis over a number of hours. After 18 hours there was no observed change in the composition of the sample. […] In addition, there was no evidence of formation of the M3L species and no evidence of formation of the unligated H3 species.
These two experiments were then repeated with the compound of formula (2) instead of the compound of formula (1). The results when the compound of formula (2) was pre-incubated with h-TNFα to give a 1:1 complex and then mixed with unligated m-TNFα were the same as with the compound of formula (1).

CD40L = molecular target: T1, CD40L (Homo sapiens, UniProt P29965); test: Mass spectrometric analysis of CD40L trimer stabilisation; format: binding; settings: in the presence of DMSO
T1 sequence (P29965 113-261 limits assumed): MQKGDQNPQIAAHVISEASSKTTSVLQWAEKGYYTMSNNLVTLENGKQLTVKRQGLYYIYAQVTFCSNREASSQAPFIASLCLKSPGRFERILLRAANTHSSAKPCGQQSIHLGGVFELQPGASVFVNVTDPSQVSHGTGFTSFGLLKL
Excerpt: Mass spectrometric analysis has shown that CD40L, which also forms homotrimers, is destabilised by DMSO, resulting in a reduced amount of the trimeric CD40L. The assay protocol used was the same as that described in Example 3 for TNFα, but using CD40L instead.

[1] = test system: activation of NF-κB by activating anti-human TNFR1 antibody; test: HEK-293 NF-κB SEAP reporter gene assay, activating TNF-R1 antibody counterscreen; format: cell-based; settings: HEK293, HEK-293 reporter cells, antibody 300 ng/ml
Description: (§1) Stimulation of HEK-293 cells by TNF-alpha leads to activation of the NF-kB pathway. The reporter cell line used to determine TNF alpha activity was purchased from Invivogen. HEK-Blue™ CD40L, is a stable transfectant expressing SEAP (secreted alkaline phosphatase) under the control of the IFN-beta minimal promoter fused to 5 NF-kB binding sites. Secretion of SEAP by these cells is stimulated in a concentration dependent manner by TNF-alpha (0.5 ng/ml), IL-1-beta (0.5 ng/ml) and an activating anti-human TNFR1 antibody (300 ng/ml).
(§2) Compounds were diluted from 10 mM DMSO stocks (final assay concentration 0.3%) to generate a 10 point 3 fold serial dilution curve (30,000 nM to 2 nM final concentration). They were mixed with stimulating ligand for 1 hour in a 384 well microtitre plate. Freshly thawed and washed cells were added to the compound/stimulus mixture and further incubated for 18 hours. SEAP activity was determined in the supernatant using the colorimetric substrate Quanti-Blue™ (Invivogen).
(§3) Percentage inhibitions for compound dilutions were calculated between a DMSO control and maximum inhibition (by excess control compound) and an IC50 calculated using xlfit (4 parameter logistic model) in Activity Base.
(§4) The specific activity of each compound against the TNF-alpha response was compared to that seen with the counterscreens (IL-1beta and anti-human TNFR1 antibody).

[2] = test system: activation of NF-κB by IL-1β; test: HEK-293 NF-κB SEAP reporter gene assay, IL-1β counterscreen; format: cell-based; settings: Homo sapiens, HEK293; HEK-293 reporter cells, IL-1β 0.5 ng/ml
Description: as §1, §2, §3, §4

Chain of h-TNFα (P01375 77-233 limits assumed): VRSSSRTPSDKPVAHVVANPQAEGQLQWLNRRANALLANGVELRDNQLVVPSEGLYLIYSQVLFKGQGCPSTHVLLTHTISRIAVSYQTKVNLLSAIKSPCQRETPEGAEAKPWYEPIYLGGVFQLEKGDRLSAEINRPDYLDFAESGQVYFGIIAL
Chain of TNFα trimer (P01375 77-233 limits assumed): as above
Chain of TNFα and TNF-R (P01375 77-233 limits assumed): as above
Chain of TNFα and TNF-R (P19438 30-211 partner limits assumed): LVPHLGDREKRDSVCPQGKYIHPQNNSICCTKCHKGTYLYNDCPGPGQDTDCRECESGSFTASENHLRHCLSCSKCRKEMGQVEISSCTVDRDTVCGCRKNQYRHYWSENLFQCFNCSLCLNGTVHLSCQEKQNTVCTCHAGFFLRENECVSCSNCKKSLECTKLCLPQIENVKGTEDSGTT

Structure (SMILES)	stabilisation of trimeric TNFα (charge state envelope) (TNFα trimer; 5% v/v DMSO, soft ionisation)	quantity of TNFα monomer detected (TNFα trimer; harsher ionization conditions, data not shown)	binding to the monomeric form of TNFα (TNFα trimer; soft ionization conditions)	stabilization of the dimeric form of TNFα (TNFα trimer; soft ionization conditions)	stoichiometry of binding (TNFα trimer; soft ionization conditions)	binding to TNFα in the presence of TNF-R (TNFα and TNF-R)	off-rate from h-TNFα (h-TNFα)	cross species monomer subunit exchange (h-TNFα)	stabilisation of trimeric CD40L (CD40L)	IC50 [1] [µM]	IC50 [2] [µM]
Cc1ccc(C)c(Cn2c(C(O)c3ccncc3)nc3ccccc32)c1 (stereo not shown) [Compound (1), [1-(2,5-Dimethylbenzyl)-1H-benzimidazol-2-yl](pyridin-4-yl)methanol]	stabilization of the trimeric TNFα complex over and above that observed in the absence of DMSO	significantly reduced	not observed to bind	no evidence for stabilization	one molecule of the compound of formula (1) per TNFα trimer	binds to TNFα even in the presence of TNF-R	no measurable off-rate	no cross species monomer subunit exchange was observed	stabilise trimeric CD40L	–	–
Cc1ccc(C)c(Cn2c(C(O)c3ccncc3)nc3ccc(-c4cnn(C)c4)cc32)c1 (stereo not shown) [Compound (2), [1-(2,5-Dimethylbenzyl)-6-(1-methyl-1H-pyrazol-4-yl)-1H-benzimidazol-2-yl](pyridin-4-yl)methanol]	–	–	–	–	–	–	no measurable off-rate	No monomer subunit exchange was observed	–	> 30	> 30
